Consider 1 molecule from US20120024744A1, “Soil-related and/or Crop-related Applications for Chlorine Dioxide” (DHARMA IP, LLC, priority 2010, published 2012).

Structures are written as SMILES.

This data set is described as follows: Enhanced solubility of beta-cyclodextrin in water containing ClO2. It is filed as physicochemical. Conditions: 100 g slurries, 5% (w/w) in 8000 ppm ClO2 vs ultrapure water, 200 rpm, 3 days.

Turning to `OC[C@H]1O[C@@H]2O[C@H]3[C@H](O)[C@@H](O)[C@@H](O[C@H]4[C@H](O)[C@@H](O)[C@@H](O[C@H]5[C@H](O)[C@@H](O)[C@@H](O[C@H]6[C@H](O)[C@@H](O)[C@@H](O[C@H]7[C@H](O)[C@@H](O)[C@@H](O[C@H]8[C@H](O)[C@@H](O)[C@@H](O[C@H]1[C@H](O)[C@H]2O)O[C@@H]8CO)O[C@@H]7CO)O[C@@H]6CO)O[C@@H]5CO)O[C@@H]4CO)O[C@@H]3CO` [beta-cyclodextrin], the “weight of dried undissolved beta-cyclodextrin, ClO2 containing slurry less than control slurry” value is given as 0.32 g.
